Patent US20080108706A1, “Chemical resection of pancreas” (priority 1999, published 2008)

Tests used:
[1] = system: Pancreatic Ductal Adenocarcinoma #03; assay: Evaluation against early stage pancreatic ductal adenocarcinoma #03 in BDF mice; type: in vivo
Description: Male BDF mice (12 weeks old, weight approximately 28.9 g) were implanted with the pancreatic ductal cell carcinoma #03 3 days before beginning treatment with (HO)2DEHSPM.

[2] = system: human pancreatic cell carcinoma line PANC-1; assay: IC50 assays in PANC-1 cells; type: cell-based
Method: (OH)2DEHSPM was tested in a series of IC50 assays in the human pancreatic cell carcinoma line PANC-1 (doubling time 36 hr.).

[3] = system: pancreatic native polyamine pools; assay: Tissue drug and native polyamine levels (pancreas, liver) in treated dogs; type: in vivo, beagles
Description: The two dogs (#490 and 494) were fed a prescription canned and dry dog food and were supplemented with Viokase, a pancreatic enzyme preparation, by mixing three tablets with food or by oral administration immediately before each feeding. The dogs were maintained on this regimen for approximately three weeks. During this time, their weight and blood chemistries were closely monitored. The Viokase supplementation was then stopped and the same parameters were again evaluated. One week after the Viokase administration had ceased, the animals were euthanized and tissues were taken for histology and for the determination of tissue polyamine levels.
As the pancreatic insufficiency side-effect that was observed after the administration of the (R,R)—(HO)2DEHSPM to the beagles may have been related to the (R,R)-chirality of the molecule, the (S,S)-enantiomer was synthesized and was compared in a head-to-head fashion with the (R,R)-enantiomer. To perform this experiment, five male beagles approximately 6-8 months of age were obtained from Harlan Sprague Dawley. There were provided with food and water ad libitum and were allowed to acclimate to their new surroundings for two weeks. The animals were weighed prior to starting drug administration and were weighed once per week during the drug dosing period. A CBC and chemistry panel and a Holter monitor were performed once per week. In addition to the usual tests, additional pancreatic function-specific tests were also performed. These additional evaluations included a fecal trypsin test, examination of the feces for fecal fat and serum trypsin-like immunoreactivity determinations. It was hoped that these signs of pancreatic insufficiency would only appear in the animals given the (R,R)-enantiomer and would not be observed in the dogs that were given the (S,S)-molecule. The pancreatic insufficiency may not become evident until approximately 7-8 weeks post-drug. At the conclusion of the experiment, all of the animals were sacrificed and the histology and tissue polyamine levels were determined.
• 1. Dogs #468 and 500 were given (R,R)—(HO)2DEHSPM subcutaneously twice daily for 13 days. • 2. They were fed Purina Dog Chow ad libitum and given free access to water. • 3. Polyamine levels in the pancreas were also analyzed at several time points post-drug. • 4. At the start of the experiment, dog #468 weighed 14.4 kg and dog #500 weighed 12.8 kg. The latter animal's weight never exceeded 13.2 kg. At the end of the drug dosing period, dog #468 weighed 13.0 kg, a loss of 1.4 kg; dog #500 weighed 13.2 kg, a gain of 0.4 kg. • 5. […] The pancreatic native polyamine pools (most especially SPD) were markedly diminished compared to untreated control tissue: [SPM]control=3,985 μm v. [SPM10-days post-treatment=2,548 μm (64% of control) [SPD]control=2,820 μm v [SPD]10-days post-treatment=721 μm (25.6% of control) • 6. Dog #468 was bright, alert and responsive until day thirteen of drug administration. […] The dog was fed boiled chicken and rice, as well as Nutrical (a caloric supplement) and cat food and was slowly weaned back to regular dog food. Frank and/or occult blood was found in the dog's stool until about 17-days post-drug. • 7. Dog #500 was bright, alert and responsive throughout the experiment. […] However, stool consistency had normalized by one week post-drug. • 8. […] The inability to digest fats was confirmed when this test was repeated and the fatty meal was supplemented with Viokase (a pancreatic enzyme supplement). […] (2.15 mg/kg every 12 hours) for 13 days • Route: subcutaneously • 1. Dogs #440 and 476 were given (S,S)— (HO)2DEHSPM subcutaneously twice daily for 13 days. • […]. They were fed Purina Dog Chow ad libitum and given free access to water. • 3. At the start of the experiment, dog #440 weighed 11.8 kg.
Two animals were also treated with DEHSPM at a dose equimolar to the (HO)2DEHSPM dosage and sacrificed at 1- and 75-days after the final treatment. […]

[4] = system: native polyamine levels in AR42J cells; assay: Polyamine pool analysis in AR42J cells; type: cell-based; conditions: 5 μm analogue
Method: In addition, the effect of (OH)2DEHSPM on the native polyamine levels in this cell line was evaluated.

[5] = system: acinar-derived cell line AR42J; assay: Growth of AR42J cells, IC50 assays; type: cell-based
Method: (OH)2 DEHSPM was also tested in the acinar-derived cell line AR42J.

[6] = group 2, total dosage 240 mg/kg IV
[7] = group 4, total dosage 205 mg/kg IV
[8] = group 6, total dosage 102.5 mg/kg IV

CCNCC[C@@H](O)CNCCCCNC[C@H](O)CCNCC.Cl.Cl.Cl.Cl [(R,R)-(HO)2DEHSPM, N^1,N^14-Diethyl-3(R) 12(R)-dihydroxyhomospermine tetrahydrochloride]
Percent Body Wt. Loss ([1]; group 2, tumor-bearing, IV QD 3, 4, 6-9, 14, 17, 18, total dosage 240 mg/kg): 38%
Drug Deaths (days of death) ([1]; group 2, tumor-bearing, total dosage 240 mg/kg IV): none of the mice died
Comments [1, 6]: Inactive
Median Tumor Burden (mg) on day 18 (range) [1, 6]: 651 (138-1324) mg
Tumor Free on Day [1, 6]: 0/5
T/C % ([1]; group 2, total dosage 240 mg/kg IV, tumor burden vs control): 64%
Percent Body Wt. Loss ([1]; group 4, tumor-bearing, IV QD 3-18, total dosage 205 mg/kg): somewhat less dramatic
Median Tumor Burden (mg) on day 18 (range) [1, 7]: 172 (63-965) mg
T-C [1, 7]: 9 days
Time to 1000 mg days (range) [1, 7]: 26.8 (18-28) days
Tumor Free on Day [1, 7]: 0/5
Log Kill ([1]; group 4, total dosage 205 mg/kg IV, Td = 3.5 days): 0.8
Percent Body Wt. Loss ([1]; group 6, tumor-bearing, IV QD 3-18, total dosage 102.5 mg/kg): no significant weight loss
Comments [1, 8]: Inactive
Median Tumor Burden (mg) on day 18 (range) [1, 8]: 617 (270-748) mg
Tumor Free on Day [1, 8]: 0/5
IC50 ([2]; time point 96 hr.): > 100000 nM
IC50 ([2]; time point 144 hr.): 500 nM
IC50 ([2]; time point 240 hr.): 120 nM
liver concentration of drug (parent+metabolite) ([3]; 10-days post-drug): 500 μm
pancreatic concentration of drug (parent+metabolite) ([3]; 10-days post-drug): exceeded 1,000 μm
[SPD] in pancreas ([3]; 10-days post-treatment): 721 μm
[SPD] in pancreas, % of control ([3]; 10-days post-treatment): 25.6 % of control
[SPM] in pancreas ([3]; 10-days post-treatment): 2,548 μm
[SPM] in pancreas, % of control ([3]; 10-days post-treatment): 64 % of control
[SPD] in pancreas ([3]; 52-days post-treatment): 156 μm
[SPD] in pancreas, % of control ([3]; 52-days post-treatment): 5.5 % of control
[SPM] in pancreas ([3]; 52-days post-treatment): 860 μm
[SPM] in pancreas, % of control ([3]; 52-days post-treatment): 21.6 % of control
native polyamine levels in pancreas ([3]; 75-, 78-, 88- and 92-days post-treatment): stabilized, but at a much lower level than the control pancreas
drug remaining in pancreas ([3]; 75-, 88- and 92-day post-treatment samples): almost completely washed out
total drug concentration (parent+metabolite) in pancreas ([3]; at necropsy (52-days post-treatment) vs 10-days post-treatment): remained virtually unchanged
Analogue level [4]: 4748 pmol/million cells
PUT, native polyamine level as % polyamine pools relative to untreated controls [4]: 0%
SPD, native polyamine level as % polyamine pools relative to untreated controls [4]: 21%
SPM, native polyamine level as % polyamine pools relative to untreated controls [4]: 82%
IC50 ([5]; treatment period 4 days (= 1.33 doublings)): 90000 nM
IC50 ([5]; treatment period 6 days (= 2 doublings)): 1200 nM
IC50 ([5]; treatment period 12 days (= 4 doublings)): 90 nM
